Our source for the TGI and outcome values is PubChem BioAssay (NCI).

Among the test systems are MDA-MB-435; A549 NSCLC; SK-MEL-28 melanoma; LOX IMVI melanoma; HT29 colon; DU-145 prostate; T-47D breast; M14 melanoma; SNB-75 CNS.
Holding throughout (assay): DTP human tumour cell line panel, 48 h

The structures appear in SMILES notation.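 The compound was tested at five concentrations on cells cultured in 96-well plates, with a 48-hour exposure period. TGI marks complete inhibition of growth.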 The source made the active and inactive calls. Rule as the data show it: active = GI50 below about 0.43 µM; inactive = the rest. A value given as a limit tells only on which side of the number the result lay.

On to `O=C1NCN(c2ccccc2)C12CCN(CCCN1CCN(CCOC(c3ccc(F)cc3)c3ccc(F)cc3)CC1)CC2`, for which the TGI in the assay with MDA-MB-435 came to 3.26 µM; in the assay with A549 NSCLC it was 4.14 µM; in the assay on SK-MEL-28 melanoma, 6.3 µM; in the assay on LOX IMVI melanoma, 3.39 µM; with HT29 colon it was 3.97 µM; in the assay on DU-145 prostate, 3.34 µM. Besides, the TGI turned out to be 3.09 µM in the assay on T-47D breast and 3.48 µM in the assay on M14 melanoma.
For the molecule `O=C(N/N=C/c1ccc(Br)cc1)N/N=C/c1ccc(Br)cc1`, the TGI in the assay on MDA-MB-435 was 76 µM; in the assay on A549 NSCLC, > 100 µM; in the assay with SK-MEL-28 melanoma, 26.9 µM; in the assay with LOX IMVI melanoma, > 100 µM; in the assay on HT29 colon it was 26 µM; in the assay on DU-145 prostate it was > 100 µM. Moreover, the values for the TGI with T-47D breast and in the assay with M14 melanoma were > 100 µM and 32.4 µM, respectively.
On to `COc1c(O)c2c(=O)cc(OC)c3c4c(OC)cc(=O)c5c(O)c(OC)c6c(c(c1C(C(C)O)C6C(C)O)c23)c54` (stereo unspecified), for which the TGI turned out to be 2.89 µM in the assay with SNB-75 CNS; 5.44 µM with MDA-MB-435; 2.66 µM in the assay with A549 NSCLC; 3.08 µM with LOX IMVI melanoma; 3.71 µM in the assay on HT29 colon; 8.14 µM with DU-145 prostate. Further, the concentration for total growth inhibition (TGI) in the assay with T-47D breast is 8.33 µM; with M14 melanoma it was 2.34 µM.
`CCOC(=O)C1CCC(=O)N1C(=O)c1ccccc1` (stereo unspecified): the TGI in the assay with MDA-MB-435, in the assay with A549 NSCLC, in the assay on SK-MEL-28 melanoma, in the assay with LOX IMVI melanoma, in the assay with HT29 colon and with DU-145 prostate was > 100 µM throughout. The TGI in the assay on T-47D breast and in the assay with M14 melanoma was > 100 µM in each case.
In the case of `COC(=O)[C@H](Cc1ccccc1)NC(=O)CCCCCCC(=O)NO`, the TGI was 63.8 µM with MDA-MB-435; > 100 µM in the assay with A549 NSCLC; > 100 µM in the assay on SK-MEL-28 melanoma; 32.4 µM in the assay on LOX IMVI melanoma; > 100 µM with HT29 colon; 38.5 µM with DU-145 prostate. Also, the TGI in the assay on T-47D breast is 8.88 µM; in the assay with M14 melanoma, > 100 µM.
In the case of `c1ccc(N2N=C(c3ccco3)CC2c2ccco2)cc1` (stereo unspecified), the TGI in the assay on SNB-75 CNS, with A549 NSCLC, with SK-MEL-28 melanoma, in the assay on LOX IMVI melanoma, in the assay on HT29 colon and in the assay on M14 melanoma was > 100 µM throughout.
As to `CCOC(=O)C#Cc1ccccc1`, the TGI is 45.6 µM with MDA-MB-435; 58.3 µM in the assay on A549 NSCLC; 44.3 µM in the assay with SK-MEL-28 melanoma; 14.9 µM in the assay with LOX IMVI melanoma; 21.4 µM in the assay with HT29 colon; > 100 µM in the assay with DU-145 prostate. Moreover, the total growth inhibition concentration (TGI) in the assay with T-47D breast was > 100 µM; in the assay with M14 melanoma, 39.1 µM.
In the case of `CN(C)CCC(=O)/C=C\c1ccccc1`, the TGI in the assay with SNB-75 CNS is > 100 µM; in the assay on A549 NSCLC, 48.3 µM; in the assay on SK-MEL-28 melanoma, 30.9 µM; with LOX IMVI melanoma, 29.6 µM; with HT29 colon it was 39.2 µM; in the assay with M14 melanoma, 30.4 µM.
For `C1=C\SS/C=C\SS/1`, the TGI in the assay with MDA-MB-435 is > 100 µM; in the assay with A549 NSCLC it was > 100 µM; with SK-MEL-28 melanoma, > 100 µM; in the assay on LOX IMVI melanoma, > 100 µM; in the assay on HT29 colon it was 35.6 µM; in the assay on DU-145 prostate it was > 100 µM. In addition, the TGI in the assay on T-47D breast and in the assay on M14 melanoma was > 100 µM in each case.
As to `NS(=O)(=O)c1cccc(NC(=S)NC(=O)Nc2ccc(Cl)c(Cl)c2)c1`, the TGI amounted to 54.9 µM in the assay on SNB-75 CNS; 61.4 µM in the assay with A549 NSCLC; 42.9 µM in the assay with SK-MEL-28 melanoma; 33.4 µM in the assay with LOX IMVI melanoma; 86.6 µM in the assay with HT29 colon; 97.9 µM in the assay on DU-145 prostate. Also, the total growth inhibition concentration (TGI) in the assay on T-47D breast was found to be 67.6 µM; in the assay on M14 melanoma, 28.2 µM.
As to `C=Cc1ccccc1C1(O)C=CC(OC)(OC)C=C1`, the TGI amounted to 38.7 µM in the assay on SNB-75 CNS; 14 µM in the assay with MDA-MB-435; 36.9 µM in the assay with A549 NSCLC; 20.8 µM in the assay on SK-MEL-28 melanoma; 11.7 µM in the assay on HT29 colon; 68.8 µM in the assay with DU-145 prostate. Further, the TGI with T-47D breast is > 100 µM; with M14 melanoma, 18.5 µM.
In the case of `CN(C)CC1CCC(CN(C)C)C1=O` (stereo unspecified), the TGI in the assay on SNB-75 CNS was 37.2 µM; with MDA-MB-435, > 100 µM; in the assay with A549 NSCLC it was 39 µM; in the assay on SK-MEL-28 melanoma it was 36.5 µM; in the assay on LOX IMVI melanoma it was 14.4 µM; in the assay on HT29 colon, 16.2 µM. Also, the values for the TGI in the assay on T-47D breast and in the assay on M14 melanoma were 3.48 µM and 7.38 µM, respectively.
For the molecule `CO[C@@H]1O[C@H](C(=O)c2ccccc2)[C@H]2OC(C)(C)O[C@@H]12`, the TGI in the assay on SNB-75 CNS, in the assay on MDA-MB-435, with LOX IMVI melanoma, in the assay on DU-145 prostate, in the assay on T-47D breast and with M14 melanoma was > 100 µM in each case.
For the molecule `CCCCCCCCCc1nn2c(Cc3ccccc3)nnc2s1`, the TGI with SNB-75 CNS came to 65.4 µM; in the assay with MDA-MB-435 it was 62 µM; with A549 NSCLC, 41.5 µM; in the assay with SK-MEL-28 melanoma it was 33.8 µM; with DU-145 prostate, 51.4 µM; in the assay on T-47D breast it was 97.5 µM. Further, the TGI with M14 melanoma stood at 38.6 µM.
Consider `c1c2c(cc(-n3nnc4c3CCCCCC4)c1-n1nnc3c1CCCCCC3)CCCCCC2`, for which the TGI is 32.1 µM in the assay on SNB-75 CNS; 33.9 µM with SK-MEL-28 melanoma; 26.6 µM with LOX IMVI melanoma; 19.8 µM in the assay on HT29 colon; 32.8 µM in the assay on M14 melanoma. In the assay with A549 NSCLC, the outcome was inactive.
Take `Cc1ccc(C2=CC(=O)/C(=C\C(=O)c3ccc(Cl)cc3)O2)cc1`: the TGI in the assay with SNB-75 CNS is 74.5 µM; in the assay on MDA-MB-435, 32.2 µM; in the assay with SK-MEL-28 melanoma it was 33.1 µM; in the assay with LOX IMVI melanoma, 3.31 µM; in the assay with HT29 colon it was 15.1 µM; in the assay on DU-145 prostate it was 87.1 µM. For the same molecule, the TGI was 24.3 µM in the assay with T-47D breast and 39.3 µM with M14 melanoma.
Consider `COc1ccc(N(C(=O)Nc2ccc(Cl)c(Cl)c2)C2c3cccn3C(=O)N2c2ccc(Cl)c(Cl)c2)cc1` (stereo unspecified), for which the TGI in the assay on MDA-MB-435, with A549 NSCLC, with SK-MEL-28 melanoma, in the assay with LOX IMVI melanoma, in the assay on HT29 colon and in the assay with DU-145 prostate was > 100 µM in each case. Also, the total growth inhibition concentration (TGI) in the assay on M14 melanoma is > 100 µM.
